Experimental data published in the supplement of paper PMC10627819.

Assays:
[1] = test system: S. pneumoniae D39V; experiment: fitness (endpoint OD595 vs no drug) (fraction); higher = more growth
Outline: (§1)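 Each well of a 384-well plate received 30 µl of culture at OD595 0.01, or 55 µl for S. pneumoniae. TSB, LB Lennox or CY served as media at 37 °C. OD595 was taken every 30 min for 14 h and corrected by subtracting the first reading. Fitness is the optical density at stationary-phase entry divided by the robust mean of no-drug controls, capped at 1.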

[2] = test system: B. subtilis 168; experiment: as above
Outline: as §1

[3] = test system: S. pneumoniae D39V; experiment: Bliss interaction score (quartile over a dose matrix) (fitness difference); higher = more antagonism (negative = synergy)
Outline: (§2)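 Each plate was normalised to the robust mean of its own no-drug wells, using OD595 at entry into stationary phase, with values capped at 1. This normalised growth is the fitness value. The Bliss score is the difference between observed and product-expected fitness, with single-drug fitness inferred from the combination data and quartiles taken over technical, biological and donor/recipient replicates.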

[4] = test system: S. aureus Newman; experiment: as above
Outline: as §2

[5] = test system: S. aureus DSM 20231; experiment: as above
Outline: as §2

[6] = test system: B. subtilis 168; experiment: as above
Outline: as §2
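For Bliss interaction score (quartile over a dose matrix) in this document: first quartile when negative (synergy) and third quartile when positive (antagonism).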

CN(C)C(=O)C(CCN1CCC(O)(c2ccc(Cl)cc2)CC1)(c1ccccc1)c1ccccc1 [Loperamide] + CN1C2=CC=CC=C2N=C3C1=CC=CC3=O [Pyocyanin]
Settings | fitness
[1], first compound 17.14 µg/mL, partner 0.325 µg/mL | ≥ 1
[1], first compound 17.14 µg/mL, partner 0.65 µg/mL | 0.984
[1], first compound 17.14 µg/mL, partner 1.3 µg/mL | 0.797
[1], first compound 34.28 µg/mL, partner 0.325 µg/mL | 0.993
[1], first compound 34.28 µg/mL, partner 0.65 µg/mL | 0.945
[1], first compound 34.28 µg/mL, partner 1.3 µg/mL | 0.729
[2], first compound 25 µg/mL, partner 1.25 µg/mL | 0.819
[2], first compound 25 µg/mL, partner 2.5 µg/mL | 0.78
[2], first compound 25 µg/mL, partner 5 µg/mL | 0.632
[2], first compound 50 µg/mL, partner 5 µg/mL | 0.215
[2], first compound 100 µg/mL, partner 1.25 µg/mL | 0.062
[2], first compound 100 µg/mL, partner 2.5 µg/mL | 0.0311
[2], first compound 100 µg/mL, partner 5 µg/mL | 0.0308

fitness, [1], one replicate
Settings | first compound 20 µg/mL | first compound 40 µg/mL | first compound 68.57 µg/mL | first compound 80 µg/mL
partner 0.325 µg/mL | ≥ 1 | ≥ 1 | ≥ 1 | ≥ 1
partner 0.65 µg/mL | ≥ 1 | ≥ 1 | 0.964 | 0.995
partner 1.3 µg/mL | – | – | 0.748 | –

Settings | Bliss interaction score
[3] | 0.0757
[4] | -0.0463
[5] | -0.0519
[6] | 0.103

C[C@H]1COc2c(N3CCN(C)CC3)c(F)cc3c(=O)c(C(=O)O)cn1c23 [Levofloxacin] + CC1=C\[C@@H](O)CC(=O)Cc2nc(co2)C(=O)N2CCC=C2C(=O)O[C@H](C(C)C)[C@H](C)/C=C/C(=O)NC\C=C\1 [Virginiamycin M1]
Settings | fitness
[1], first compound 0.1725 µg/mL, partner 0.5 µg/mL | 0.998
[1], first compound 0.1725 µg/mL, partner 1 µg/mL | 0.992
[1], first compound 0.1725 µg/mL, partner 2 µg/mL | 0.969
[1], first compound 0.2 µg/mL, partner 2 µg/mL | 0.896
[1], first compound 0.345 µg/mL, partner 0.5 µg/mL | 0.92
[1], first compound 0.345 µg/mL, partner 1 µg/mL | 0.904
[1], first compound 0.345 µg/mL, partner 2 µg/mL | 0.9
[1], first compound 0.4 µg/mL, partner 2 µg/mL | 0.817
[1], first compound 0.69 µg/mL, partner 0.5 µg/mL | 0.539
[1], first compound 0.69 µg/mL, partner 1 µg/mL | 0.464
[1], first compound 0.69 µg/mL, partner 2 µg/mL | 0.458
[1], first compound 0.8 µg/mL, partner 2 µg/mL | 0.567
[2], first compound 0.0312 µg/mL, partner 0.0625 µg/mL | 0.0334
[2], first compound 0.0312 µg/mL, partner 0.125 µg/mL | 0.0383
[2], first compound 0.0312 µg/mL, partner 0.25 µg/mL | 0.0414
[2], first compound 0.0625 µg/mL, partner 0.0625 µg/mL | 0.0348
[2], first compound 0.0625 µg/mL, partner 0.125 µg/mL | 0.0328
[2], first compound 0.0625 µg/mL, partner 0.25 µg/mL | 0.0437
[2], first compound 0.125 µg/mL, partner 0.0625 µg/mL | 0.0353
[2], first compound 0.125 µg/mL, partner 0.125 µg/mL | 0.0443
[2], first compound 0.125 µg/mL, partner 0.25 µg/mL | 0.0489

fitness, one replicate
Settings | partner 0.0625 µg/mL | partner 0.125 µg/mL | partner 0.15 µg/mL | partner 0.25 µg/mL | partner 0.3 µg/mL | partner 0.5 µg/mL | partner 1 µg/mL
[1], first compound 0.2 µg/mL | – | – | 0.954 | – | 0.876 | 0.925 | 0.937
[1], first compound 0.4 µg/mL | – | – | 0.921 | – | 0.913 | 0.834 | 0.832
[1], first compound 0.8 µg/mL | – | – | 0.829 | – | 0.797 | 0.539 | 0.391
[2], first compound 0.001 µg/mL | 0.869 | 0.947 | – | 0.969 | – | – | –
[2], first compound 0.002 µg/mL | 0.949 | 0.971 | – | 0.936 | – | – | –
[2], first compound 0.0039 µg/mL | 0.887 | 0.918 | – | 0.904 | – | – | –

Settings | Bliss interaction score
[3] | 0.0593
[4] | -0.0223
[5] | -0.0827
[6] | 0.0195

CN(C)C(=O)C(CCN1CCC(O)(c2ccc(Cl)cc2)CC1)(c1ccccc1)c1ccccc1 [Loperamide] + CCN(CC)CCOC(=O)c1ccc(N)cc1 [Procaine]
fitness
Settings | partner 85.5 µg/mL | partner 171 µg/mL | partner 342 µg/mL
[1], first compound 17.14 µg/mL | 0.941 | 0.905 | 0.903
[1], first compound 34.28 µg/mL | 0.97 | 0.853 | 0.923
[2], first compound 25 µg/mL | 0.801 | 0.84 | 0.763
[2], first compound 50 µg/mL | 0.0504 | 0.0536 | 0.051
[2], first compound 100 µg/mL | 0.0164 | 0.016 | 0.052

fitness, [1], one replicate
Settings | first compound 20 µg/mL | first compound 40 µg/mL | first compound 68.57 µg/mL | first compound 80 µg/mL
partner 85.5 µg/mL | ≥ 1 | ≥ 1 | 0.919 | 0.999
partner 171 µg/mL | ≥ 1 | ≥ 1 | 0.874 | ≥ 1
partner 342 µg/mL | ≥ 1 | 0.986 | 0.88 | ≥ 1

Settings | Bliss interaction score
[3] | -0.0548
[4] | 0.0372
[5] | 0.127
[6] | -0.0865

CCCCCCCCCC(=O)N[C@@H](Cc1c[nH]c2ccccc12)C(=O)N[C@H](CC(N)=O)C(=O)N[C@@H](CC(=O)O)C(=O)N[C@@H]1C(=O)NCC(=O)N[C@@H](CCCN)C(=O)N[C@@H](CC(=O)O)C(=O)N[C@H](C)C(=O)N[C@@H](CC(=O)O)C(=O)NCC(=O)N[C@H](CO)C(=O)N[C@@H]([C@H](C)CC(=O)O)C(=O)N[C@@H](CC(=O)c2ccccc2N)C(=O)O[C@@H]1C [Daptomycin] + CCC(C)C1C(=O)NC(=C)C(=O)NC(C(=O)NC(CSCC(C(=O)N1)NC(=O)/C(=C/C)/NC(=O)C(C(C)CC)N)C(=O)NC2C(SCC(NC(=O)CNC(=O)C3CCCN3C2=O)C(=O)NC(CCCCN)C(=O)NC4C(SCC(NC(=O)CNC(=O)C(NC(=O)C(NC(=O)C(NC(=O)CNC4=O)C)CC(C)C)CCSC)C(=O)NC(CC(=O)N)C(=O)NC(CCSC)C(=O)NC(CCCCN)C(=O)NC5C(SCC6C(=O)NC(C(=O)NC(CSC(C(C(=O)N6)NC(=O)C(NC5=O)C)C)C(=O)NC(CO)C(=O)NC(C(C)CC)C(=O)NC(CC7=CN=CN7)C(=O)NC(C(C)C)C(=O)NC(=C)C(=O)NC(CCCCN)C(=O)O)CC8=CN=CN8)C)C)C)CC(C)C [Nisin]
fitness, main component drawn
Settings | partner 0.4275 µg/mL | partner 0.5 µg/mL | partner 0.855 µg/mL | partner 1 µg/mL | partner 1.6 µg/mL | partner 1.71 µg/mL | partner 2 µg/mL | partner 3.2 µg/mL | partner 6.4 µg/mL
[1], first compound 1 µg/mL | 0.995 | – | 0.874 | – | 0.022 | 0.0748 | – | 0.0226 | 0.0257
[1], first compound 2 µg/mL | 0.98 | – | 0.905 | – | 0.0316 | 0.077 | – | 0.0221 | 0.013
[1], first compound 4 µg/mL | 0.95 | – | 0.796 | – | 0.0215 | 0.0872 | – | 0.0303 | 0.0068
[2], first compound 0.25 µg/mL | – | 0.863 | – | 0.788 | – | – | 0.58 | – | –
[2], first compound 0.5 µg/mL | – | 0.828 | – | 0.794 | – | – | 0.595 | – | –

fitness, [2], one replicate, main component drawn
Settings | first compound 0.125 µg/mL | first compound 0.25 µg/mL | first compound 0.5 µg/mL | first compound 1 µg/mL
partner 0.5 µg/mL | 0.829 | – | – | 0.726
partner 1 µg/mL | 0.873 | – | – | 0.676
partner 1.25 µg/mL | 0.963 | 0.933 | ≥ 1 | –
partner 1.6 µg/mL | 0.788 | 0.654 | 0.797 | –
partner 2 µg/mL | 0.439 | – | – | 0.451
partner 2.5 µg/mL | 0.234 | 0.593 | 0.601 | –
partner 3.2 µg/mL | 0.0337 | 0.0148 | 0.0344 | –
partner 4 µg/mL | 0.212 | 0.0372 | 0.0568 | –
partner 5 µg/mL | 0.077 | 0.0364 | 0.0223 | –
partner 6.4 µg/mL | 0.0443 | 0.039 | 0.026 | –
partner 8 µg/mL | 0.0734 | 0.157 | 0.0959 | –
partner 16 µg/mL | 0.0313 | 0.1 | 0.0497 | –

main component drawn
Settings | Bliss interaction score
[3] | -0.0492
[4] | 0.0445
[5] | 0.209
[6] | 0.0676
